Test results published in article PMC10779433, “Bidirectional Allosteric Coupling between PIP2 Binding and the Pore of the Oncochannel TRPV6” (International Journal of Molecular Sciences, 2024).
Residues, ends and D or L forms follow the SMILES beside them. *: point of attachment. Palmitoyl = CCCCCCCCCCCCCCCC(=O)*

Legend:
[1] = system: TRPV6 K484A; assay: NFAT screen, TRPV6 K484A; type: cell-based, human; settings: HEK293 cells; 5 μM cis-22a, 2 h, vs DMSO
Description: N-terminally TagRFP-labeled human TRPV6 (725 aa) was kindly provided by R. Bhardwaj and M. Hediger (University of Bern, Bern, Switzerland). This variant is translated from the first ATG codon and thus deviates from the non-ATG-initiated protein which is expressed in vivo (accession number NM_018646.6) by lacking 40 amino acids of the very N-terminus. For N-terminal labeling with EYFP, TRPV6 was cloned into pEYFP-C1 (Clontech) via EcoRI and SacII restriction sites. […]
After incubation, cover slips were carefully rinsed with phenol red-free DMEM supplemented with the compound and dosage corresponding to the previous incubation, which was then also present during imaging. […] Subcellular NFAT localization of TRPV6 expressing cells was again monitored on an Axiovert 135 inverted microscope (Zeiss, Oberkochen, Germany), as described in more detail before. […] Images were analyzed using Matlab2018a, differentiating between three cell populations based on the ratio of CFP emission intensity originating from the nucleus and the cytosol, similar to Schober et al. (2019).

[2] = system: TRPV6 R470A W583F; parameters: method as in PMID 33246965; settings: ref [47], cited from earlier work
[3] = system: TRPV6 W583F; assay: Whole-cell patch clamp, TRPV6 W583F; type: cell-based, human; settings: HEK293 cells, 10 μM pal-PIP2 peptide, Figure 5C
From the text: N-terminally TagRFP-labeled human TRPV6 (725 aa) was kindly provided by R. Bhardwaj and M. Hediger (University of Bern, Bern, Switzerland). This variant is translated from the first ATG codon and thus deviates from the non-ATG-initiated protein which is expressed in vivo (accession number NM_018646.6) by lacking 40 amino acids of the very N-terminus. For N-terminal labeling with EYFP, TRPV6 was cloned into pEYFP-C1 (Clontech) via EcoRI and SacII restriction sites. Mutations (F468A, R470A, F472A, K484A/Q, G488R, R492A/Q, I575A, G579A, D580A/K, H582A, W583A/F, H587A, R589A, W593A, R632A/Q, R470A, W583F) were introduced using the QuickChange XL site-directed mutagenesis kit (Stratagene, San Diego, CA, USA) and Pfu DNA Polymerase (Promega, Madison, WI, USA). pTagRFP-hTRPV6 I575A was kindly provided by the lab of M. Hediger (University of Bern, Bern, Switzerland). Forward and reverse primers for site-directed mutagenesis were synthesized by Eurofins genomics GmbH (Wien, Vienna, Austria). Intactness of the constructs in terms of sequence was confirmed by sequencing (Microsynth Austria GmbH, Wien, Vienna, Austria; Eurofins genomics GmbH, Wien, Vienna, Austria). […]
Electrophysiological experiments were performed at 20 °C to 24 °C in whole-cell recording configurations of the patch clamp technique. […] The liquid junction potential was determined as 12 mV; the voltages were not adjusted. […]

Row | Structure (SMILES) | reduction of nuclear NFAT localization [1] | inhibition by cis-22a in electrophysiological measurements ([2]; HEK293 cells, 0.1 and 10 μM cis-22a, n=6, Figure S6B) | resistance to cis-22a vs single mutants ([2]; R470A W583F, especially at the high blocker concentration) | inhibition by cis-22a (in words) ([2]; R470A W583F) | sensitivity to peptide-based PIP2 sequestration vs WT [3]
1 | Cc1cccc(C2CCC(N3CCN(c4cccnc4)CC3)CC2)c1.O=C(O)C(F)(F)F (stereo not drawn) [cis-22a] | failed to significantly reduce NFAT nuclear localization | just modest inhibition | considerably higher resistance | very weak inhibition | 
2 | CCCCCCCCCCCCCCCC(=O)N[C@@H](Cc1c[nH]cn1)C(=O)N[C@@H](CCCNC(=N)N)C(=O)N[C@@H](CCC(N)=O)C(=O)N[C@@H](CCCCN)C(=O)N[C@@H](Cc1c[nH]cn1)C(=O)N[C@@H](Cc1ccccc1)C(=O)N[C@@H](CCC(=O)O)C(=O)N[C@@H](CCCCN)C(=O)N[C@@H](CCCNC(=N)N)C(=O)N[C@@H](CCCNC(=N)N)C(N)=O [pal-PIP2 peptide] (Palmitoyl-HRQKHFEKRR-NH2) |  |  |  |  | not changed compared to the wildtype control
